Experiments:
Type in all cases: functional
[1] = test system: Pseudomonas aeruginosa; assay: Potentiation of aztreonam-induced antibacterial activity against carbapenem-resistant Pseudomonas aeruginosa 108590 clinical isolate assessed as fold reduction in aztreonam MIC at 8 uM in presence of beta-lactamase inhibitor, avi-bactam
[2] = test system: Pseudomonas aeruginosa; assay: Potentiation of imipenem-induced antibacterial activity against carbapenem-resistant Pseudomonas aeruginosa 108590 clinical isolate assessed as imipenem MIC at 8 uM by checkerboard assay (reference value: 16 ug/ml)
[3] = test system: Pseudomonas aeruginosa; assay: Antibacterial activity against wild type Pseudomonas aeruginosa PAO1
[4] = test system: Pseudomonas aeruginosa; assay: Potentiation of aztreonam-induced antibacterial activity against carbapenem-resistant Pseudomonas aeruginosa PAO750 harboring mexAB-oprM/mexCD-oprJ/mexEF-oprN/mexJK/mexXY/opmH efflux deficient mutant assessed as aztreonam MIC at 8 uM by checkerboard assay (reference value: 0.5 ug/ml)
[5] = test system: Pseudomonas aeruginosa; assay: Potentiation of ceftazidime-induced antibacterial activity against carbapenem-resistant Pseudomonas aeruginosa 101885 clinical isolate assessed as ceftazidime MIC at 8 uM by checkerboard assay (reference value: 8 ug/ml)
[6] = test system: Pseudomonas aeruginosa; assay: Potentiation of aztreonam-induced antibacterial activity against carbapenem-resistant Pseudomonas aeruginosa 86052 clinical isolate assessed as aztreonam MIC at 8 uM by checkerboard assay (reference value: 64 ug/ml)
[7] = test system: Pseudomonas aeruginosa; assay: Potentiation of imipenem-induced antibacterial activity against carbapenem-resistant Pseudomonas aeruginosa PAO750 harboring mexAB-oprM/mexCD-oprJ/mexEF-oprN/mexJK/mexXY/opmH efflux deficient mutant assessed as imipenem MIC at 8 uM by checkerboard assay (reference value: 4 ug/ml)
[8] = test system: Pseudomonas aeruginosa; assay: Antibacterial activity against Pseudomonas aeruginosa PAO200 harboring mexAB-oprM efflux deficient mutant
[9] = test system: Pseudomonas aeruginosa; assay: Potentiation of aztreonam-induced antibacterial activity against carbapenem-resistant Pseudomonas aeruginosa 107092 clinical isolate assessed as aztreonam MIC at 8 uM by checkerboard assay (reference value: 64 ug/ml)
[10] = test system: Pseudomonas aeruginosa; assay: Potentiation of aztreonam-induced antibacterial activity against carbapenem-resistant Pseudomonas aeruginosa 88949 clinical isolate assessed as aztreonam MIC at 8 uM by checkerboard assay (reference value: 32 ug/ml)
[11] = test system: Pseudomonas aeruginosa; assay: Potentiation of aztreonam-induced antibacterial activity against carbapenem-resistant Pseudomonas aeruginosa 108590 clinical isolate assessed as aztreonam MIC at 8 uM by checkerboard assay (reference value: 32 ug/ml)
[12] = test system: Pseudomonas aeruginosa; assay: Potentiation of imipenem-induced antibacterial activity against carbapenem-resistant Pseudomonas aeruginosa 86052 clinical isolate assessed as fold reduction in imipenem MIC at 8 uM in presence of beta-lactamase inhibitor, rele-bactam
[13] = test system: Pseudomonas aeruginosa; assay: Potentiation of aztreonam-induced antibacterial activity against carbapenem and colistin-resistant Pseudomonas aeruginosa 114228 clinical isolate assessed as aztreonam MIC at 8 uM by checkerboard assay (reference value: 32 ug/ml)
[14] = test system: Pseudomonas aeruginosa; assay: Potentiation of ceftazidime-induced antibacterial activity against carbapenem-resistant Pseudomonas aeruginosa 86052 clinical isolate assessed as fold reduction in ceftazidime MIC at 8 uM in presence of beta-lactamase inhibitor, avi-bactam
[15] = test system: Pseudomonas aeruginosa; assay: Potentiation of ceftazidime-induced antibacterial activity against carbapenem-resistant Pseudomonas aeruginosa 88949 clinical isolate assessed as ceftazidime MIC at 8 uM by checkerboard assay (reference value: 64 ug/ml)
[16] = test system: Pseudomonas aeruginosa; assay: Potentiation of aztreonam-induced antibacterial activity against carbapenem-resistant Pseudomonas aeruginosa 88949 clinical isolate assessed as fold reduction in aztreonam MIC at 8 uM in presence of beta-lactamase inhibitor, avi-bactam
[17] = test system: Pseudomonas aeruginosa; assay: Potentiation of ceftazidime-induced antibacterial activity against carbapenem-resistant Pseudomonas aeruginosa 260-97103 clinical isolate assessed as ceftazidime MIC at 8 uM by checkerboard assay (reference value: 32 ug/ml)
[18] = test system: Pseudomonas aeruginosa; assay: Potentiation of aztreonam-induced antibacterial activity against carbapenem-resistant Pseudomonas aeruginosa 260-97103 clinical isolate assessed as aztreonam MIC at 8 uM by checkerboard assay (reference value: 64 ug/ml)
[19] = test system: Pseudomonas aeruginosa; assay: Potentiation of ceftazidime-induced antibacterial activity against wild type Pseudomonas aeruginosa PAO1 assessed as ceftazidime MIC at 8 uM by checkerboard assay (reference value: 2 ug/ml)
[20] = test system: Pseudomonas aeruginosa; assay: Potentiation of imipenem-induced antibacterial activity against carbapenem-resistant Pseudomonas aeruginosa 109084 clinical isolate assessed as fold reduction in imipenem MIC at 8 uM in presence of beta-lactamase inhibitor, rele-bactam
[21] = test system: Pseudomonas aeruginosa; assay: Potentiation of piperacillin-induced antibacterial activity against wild type Pseudomonas aeruginosa PAO1 assessed as fold reduction in piperacillin MIC at 8 uM
[22] = test system: Pseudomonas aeruginosa; assay: Potentiation of ceftazidime-induced antibacterial activity against carbapenem-resistant Pseudomonas aeruginosa 107092 clinical isolate assessed as fold reduction in ceftazidime MIC at 8 uM in presence of beta-lactamase inhibitor, avi-bactam
[23] = test system: Pseudomonas aeruginosa; assay: Potentiation of ceftazidime-induced antibacterial activity against carbapenem-resistant Pseudomonas aeruginosa 259-96918 clinical isolate expressing metallo-beta-lactamase assessed as ceftazidime MIC at 8 uM by checkerboard assay (reference value: 512 ug/ml)
[24] = test system: Pseudomonas aeruginosa; assay: Potentiation of imipenem-induced antibacterial activity against carbapenem-resistant Pseudomonas aeruginosa 88949 clinical isolate assessed as fold reduction in imipenem MIC at 8 uM in presence of beta-lactamase inhibitor, rele-bactam
[25] = test system: Pseudomonas aeruginosa; assay: Potentiation of aztreonam-induced antibacterial activity against carbapenem and colistin-resistant Pseudomonas aeruginosa 101243 clinical isolate assessed as aztreonam MIC at 8 uM by checkerboard assay (reference value: 32 ug/ml)
[26] = test system: Pseudomonas aeruginosa; assay: Potentiation of aztreonam-induced antibacterial activity against wild type Pseudomonas aeruginosa PAO1 assessed as aztreonam MIC at 8 uM by checkerboard assay (reference value: 4 ug/ml)
[27] = test system: Pseudomonas aeruginosa; assay: Potentiation of imipenem-induced antibacterial activity against wild type Pseudomonas aeruginosa PAO1 assessed as fold reduction in imipenem MIC at 8 uM
[28] = test system: Pseudomonas aeruginosa; assay: Potentiation of aztreonam-induced antibacterial activity against carbapenem-resistant Pseudomonas aeruginosa 109084 clinical isolate assessed as fold reduction in aztreonam MIC at 8 uM in presence of beta-lactamase inhibitor, avi-bactam
[29] = test system: Pseudomonas aeruginosa; assay: Potentiation of piperacillin-induced antibacterial activity against wild type Pseudomonas aeruginosa PAO1 assessed as piperacillin MIC at 8 uM by checkerboard assay (reference value: 8 ug/ml)
[30] = test system: Pseudomonas aeruginosa; assay: Potentiation of imipenem-induced antibacterial activity against carbapenem-resistant Pseudomonas aeruginosa 86052 clinical isolate assessed as imipenem MIC at 8 uM by checkerboard assay (reference value: 32 ug/ml)
[31] = test system: Pseudomonas aeruginosa; assay: Potentiation of aztreonam-induced antibacterial activity against carbapenem-resistant Pseudomonas aeruginosa 259-96918 clinical isolate expressing metallo-beta-lactamase assessed as aztreonam MIC at 8 uM by checkerboard assay (reference value: 32 ug/ml)
[32] = test system: Pseudomonas aeruginosa; assay: Potentiation of imipenem-induced antibacterial activity against carbapenem-resistant Pseudomonas aeruginosa 88949 clinical isolate assessed as imipenem MIC at 8 uM by checkerboard assay (reference value: 64 ug/ml)
[33] = test system: Pseudomonas aeruginosa; assay: Potentiation of ceftazidime-induced antibacterial activity against carbapenem-resistant Pseudomonas aeruginosa 109084 clinical isolate assessed as fold reduction in ceftazidime MIC at 8 uM in presence of beta-lactamase inhibitor, avi-bactam

| Compound | fold change (FC) [1] | MIC [2] [mg/L] | MIC [3] [mg/L] | MIC [4] [mg/L] | MIC [5] [mg/L] | MIC [7] [mg/L] | MIC [8] [mg/L] | fold change (FC) [12] | fold change (FC) [14] | fold change (FC) [16] | fold change (FC) [20] | fold change (FC) [21] | fold change (FC) [22] | fold change (FC) [24] | fold change (FC) [27] | fold change (FC) [28] | MIC [29] [mg/L] | MIC [30] [mg/L] | MIC [32] [mg/L] | fold change (FC) [33] | also measured |
| --- | --- | --- | --- | --- | --- | --- | --- | --- | --- | --- | --- | --- | --- | --- | --- | --- | --- | --- | --- | --- | --- |
| NC[C@H]1O[C@H](O[C@H]2[C@H](OCCCCc3cn(CCCCO[C@@H]4[C@@H](O[C@H]5O[C@H](CO)[C@@H](O)[C@H](N)[C@H]5O)[C@H](N)C[C@H](N)[C@H]4O[C@H]4O[C@H](CN)[C@@H](O)C[C@H]4N)nn3)[C@@H](O[C@H]3O[C@H](CO)[C@@H](O)[C@H](N)[C@H]3O)[C@H](N)C[C@@H]2N)[C@H](N)C[C@@H]1O.O=C(O)C(F)(F)F.O=C(O)C(F)(F)F.O=C(O)C(F)(F)F.O=C(O)C(F)(F)F.O=C(O)C(F)(F)F.O=C(O)C(F)(F)F.O=C(O)C(F)(F)F.O=C(O)C(F)(F)F.O=C(O)C(F)(F)F.O=C(O)C(F)(F)F | 16 | 4 | > 128 | 0.06 | 2 | 1 | > 128 | 16 | 16 | 16 | 16 | 2 | 16 | 16 | 2 | 16 | 0.5 | 16 | 4 | 16 | MIC [6]: 8 mg/L; MIC [9]: 16 mg/L; MIC [10]: 32 mg/L; MIC [11]: 8 mg/L; MIC [13]: 4 mg/L; MIC [15]: 16 mg/L; MIC [17]: 8 mg/L; MIC [18]: 16 mg/L; MIC [19]: 0.25 mg/L; MIC [23]: 128 mg/L; MIC [25]: 16 mg/L; MIC [26]: 0.25 mg/L; MIC [31]: 8 mg/L |
| Cl.Cl.Cl.Cl.Cl.NC[C@H]1O[C@H](O[C@H]2[C@H](OCCCCCCCCCCCCN3CCN(c4cc5c(cc4F)c(=O)c(C(=O)O)cn5C4CC4)CC3)[C@@H](O)[C@H](N)C[C@@H]2N)[C@H](N)C[C@@H]1O | 16 | 0.5 | 32 | 0.13 | 4 | 2 | 4 | 16 | 16 | 16 | 16 | 2 | 16 | 16 | 2 | 16 | 2 | 4 | 64 | 16 | MIC [6]: 4 mg/L; MIC [9]: 32 mg/L; MIC [10]: 8 mg/L; MIC [11]: 0.13 mg/L; MIC [13]: 8 mg/L; MIC [15]: 32 mg/L; MIC [17]: 0.25 mg/L; MIC [18]: 0.25 mg/L; MIC [19]: 0.25 mg/L; MIC [23]: 128 mg/L; MIC [25]: 0.25 mg/L; MIC [26]: 0.5 mg/L; MIC [31]: 8 mg/L |
| Cl.Cl.Cl.Cl.Cl.Cl.NC[C@H]1O[C@H](O[C@H]2[C@H](OCCCCCCCCCCCCN3CCN(c4cc5c(cc4F)c(=O)c(C(=O)O)cn5C4CC4)CC3)[C@@H](O[C@H]3O[C@H](CO)[C@@H](O)[C@H](N)[C@H]3O)[C@H](N)C[C@@H]2N)[C@H](N)C[C@@H]1O | 16 | 0.25 | 32 | 0.06 | 1 | 0.5 | 4 | 16 | 16 | 16 | 16 | 2 | 16 | 16 | 2 | 16 | 2 | 8 | 8 | 16 | MIC [6]: 8 mg/L; MIC [9]: 8 mg/L; MIC [10]: 8 mg/L; MIC [11]: 0.5 mg/L; MIC [13]: 2 mg/L; MIC [15]: 32 mg/L; MIC [17]: 4 mg/L; MIC [18]: 4 mg/L; MIC [19]: 0.25 mg/L; MIC [23]: 64 mg/L; MIC [25]: 4 mg/L; MIC [26]: 0.25 mg/L; MIC [31]: 8 mg/L |
| NC[C@H]1O[C@H](O[C@H]2[C@H](OCCCCCCCCN3CCCNCCNCCCNCC3)[C@@H](O[C@H]3O[C@H](CO)[C@@H](O)[C@H](N)[C@H]3O)[C@H](N)C[C@@H]2N)[C@H](N)C[C@@H]1O.O=C(O)C(F)(F)F.O=C(O)C(F)(F)F.O=C(O)C(F)(F)F.O=C(O)C(F)(F)F.O=C(O)C(F)(F)F.O=C(O)C(F)(F)F.O=C(O)C(F)(F)F.O=C(O)C(F)(F)F.O=C(O)C(F)(F)F | 16 | 16 | > 128 |  |  | 2 | > 128 | 16 | 16 | 16 | 16 | 2 | 16 | 16 | 2 | 16 | 2 | 16 | 32 | 16 |  |
| NC[C@H]1O[C@H](O[C@H]2[C@H](OCCCCCCCCN3CCCNCCNCCCNCC3)[C@@H](O)[C@H](N)C[C@@H]2N)[C@H](N)C[C@@H]1O.O=C(O)C(F)(F)F.O=C(O)C(F)(F)F.O=C(O)C(F)(F)F.O=C(O)C(F)(F)F.O=C(O)C(F)(F)F.O=C(O)C(F)(F)F.O=C(O)C(F)(F)F.O=C(O)C(F)(F)F | 16 | 16 | > 128 | 0.13 | 2 | 4 | > 128 | 16 | 16 | 16 | 16 | 2 | 16 | 16 | 2 | 16 | 2 | 16 | 64 | 16 | MIC [6]: 64 mg/L; MIC [9]: 32 mg/L; MIC [10]: 32 mg/L; MIC [11]: 8 mg/L; MIC [13]: 16 mg/L; MIC [15]: 64 mg/L; MIC [17]: 16 mg/L; MIC [18]: 8 mg/L; MIC [19]: 0.5 mg/L; MIC [23]: 128 mg/L; MIC [25]: 2 mg/L; MIC [26]: 0.5 mg/L; MIC [31]: 8 mg/L |
